Source: ChEMBL document CHEMBL6092180 (Eur J Med Chem, 2024)
≈ marks a conversion by molar mass, not a printed value.

Experiments:
Assay type in all cases: functional
Nakaseomyces glabratus = assay: Antifungal activity against Candida glabrata assessed as inhibition of fungal growth by CLSI M27-A3 guidelines based method
Candida albicans [1] = assay: Antifungal activity against fluconazole-resistant Candida albicans clinical isolate 632 assessed as inhibition of fungal growth by CLSI M27-A3 guidelines based method
Candida albicans [2] = assay: Antifungal activity against Candida albicans GIM 2.194 assessed as inhibition of fungal growth by CLSI M27-A3 guidelines based method
Candida albicans [3] = assay: Antifungal activity against fluconazole-resistant Candida albicans clinical isolate 901 assessed as inhibition of fungal growth by CLSI M27-A3 guidelines based method
Aspergillus fumigatus = assay: Antifungal activity against Aspergillus fumigatus cgmcc 3.7795 assessed as inhibition of fungal growth by CLSI M27-A3 guidelines based method
Candida albicans [4] = assay: Antifungal activity against fluconazole-resistant Candida albicans clinical isolate 904 assessed as inhibition of fungal growth by CLSI M27-A3 guidelines based method
Pichia kudriavzevii = assay: Antifungal activity against Candida krusei GIM 2.1 assessed as inhibition of fungal growth by CLSI M27-A3 guidelines based method
Candida albicans [5] = assay: Antifungal activity against fluconazole-resistant Candida albicans CaR assessed as inhibition of fungal growth by CLSI M27-A3 guidelines based method
Candida albicans [6] = assay: Antifungal activity against fluconazole-resistant Candida albicans clinical isolate 103 assessed as inhibition of fungal growth by CLSI M27-A3 guidelines based method
Candida albicans [7] = assay: Antifungal activity against fluconazole-resistant Candida albicans clinical isolate 311 assessed as inhibition of fungal growth by CLSI M27-A3 guidelines based method
Candida albicans [8] = assay: Antifungal activity against fluconazole-resistant Candida albicans clinical isolate 100 assessed as inhibition of fungal growth by CLSI M27-A3 guidelines based method
Candida albicans [9] = assay: Antifungal activity against fluconazole and iodiconazole resistant Candida albicans clinical isolate 17# assessed as inhibition of fungal growth by CLSI M27-A3 guidelines based method
Candida albicans [10] = assay: Antifungal activity against Candida albicans SC5314 assessed as inhibition of fungal growth by CLSI M27-A3 guidelines based method
Cryptococcus neoformans = assay: Antifungal activity against Cryptococcus neoformans CGMCC 2.3161 assessed as inhibition of fungal growth by CLSI M27-A3 guidelines based method
Candida tropicalis = assay: Antifungal activity against Candida tropicalis GIM 2.183 assessed as inhibition of fungal growth by CLSI M27-A3 guidelines based method
Candida parapsilosis = assay: Antifungal activity against Candida parapsilosis GIM 2.190 assessed as inhibition of fungal growth by CLSI M27-A3 guidelines based method; conditions: Lodderomyces parapsilosis

Row | SMILES | MIC80 (Nakaseomyces glabratus) | MIC80 (Candida albicans [1]) | MIC80 (Candida albicans [2]) | MIC80 (Candida albicans [3]) | MIC80 (Aspergillus fumigatus) | MIC80 (Candida albicans [4]) | MIC80 (Pichia kudriavzevii) | MIC80 (Candida albicans [5]) | MIC80 (Candida albicans [6]) | MIC80 (Candida albicans [7]) | MIC80 (Candida albicans [8]) | MIC80 (Candida albicans [9]) | MIC80 (Candida albicans [10]) | MIC80 (Cryptococcus neoformans) | MIC80 (Candida tropicalis) | MIC80 (Candida parapsilosis)
1 | C[C@@H](N(C)Cc1ccc(C#Cc2ccc(Br)cc2)cc1)[C@](O)(Cn1cncn1)c1ccc(F)cc1F | 0.05 µg/mL (≈ 0.0907 µM) | 8 µg/mL (≈ 14.5 µM) | 0.025 µg/mL (≈ 0.0453 µM) | 8 µg/mL (≈ 14.5 µM) | 0.1 µg/mL (≈ 0.181 µM) | 16 µg/mL (≈ 29 µM) | 0.03 µg/mL (≈ 0.0544 µM) | 0.25 µg/mL (≈ 0.453 µM) | 8 µg/mL (≈ 14.5 µM) | > 64 µg/mL | 8 µg/mL (≈ 14.5 µM) | 0.5 µg/mL (≈ 0.907 µM) | 0.025 µg/mL (≈ 0.0453 µM) | 0.025 µg/mL (≈ 0.0453 µM) | 0.006 µg/mL (≈ 0.0109 µM) | 0.006 µg/mL (≈ 0.0109 µM)
2 | C[C@@H](N(C)Cc1ccc(C#Cc2ccc(Cl)cc2)cc1)[C@](O)(Cn1cncn1)c1ccc(F)cc1F | 0.03 µg/mL (≈ 0.0592 µM) | 8 µg/mL (≈ 15.8 µM) | 0.025 µg/mL (≈ 0.0493 µM) | 8 µg/mL (≈ 15.8 µM) | 0.1 µg/mL (≈ 0.197 µM) | 16 µg/mL (≈ 31.6 µM) | 0.01 µg/mL (≈ 0.0197 µM) | 0.25 µg/mL (≈ 0.493 µM) | 16 µg/mL (≈ 31.6 µM) | 32 µg/mL (≈ 63.1 µM) | 8 µg/mL (≈ 15.8 µM) | 0.5 µg/mL (≈ 0.986 µM) | 0.025 µg/mL (≈ 0.0493 µM) | 0.025 µg/mL (≈ 0.0493 µM) | 0.006 µg/mL (≈ 0.0118 µM) | 0.006 µg/mL (≈ 0.0118 µM)
3 | C[C@@H](N(C)Cc1ccc(C#Cc2cc(F)c(F)cc2F)cc1)[C@](O)(Cn1cncn1)c1ccc(F)cc1F | 0.05 µg/mL (≈ 0.095 µM) | 4 µg/mL (≈ 7.6 µM) | 0.025 µg/mL (≈ 0.0475 µM) | 8 µg/mL (≈ 15.2 µM) | 0.2 µg/mL (≈ 0.38 µM) | 32 µg/mL (≈ 60.8 µM) | 0.05 µg/mL (≈ 0.095 µM) | 1 µg/mL (≈ 1.9 µM) | 8 µg/mL (≈ 15.2 µM) | 16 µg/mL (≈ 30.4 µM) | 8 µg/mL (≈ 15.2 µM) | 2 µg/mL (≈ 3.8 µM) | 0.013 µg/mL (≈ 0.0247 µM) | 0.025 µg/mL (≈ 0.0475 µM) | 0.006 µg/mL (≈ 0.0114 µM) | 0.006 µg/mL (≈ 0.0114 µM)
4 | C[C@@H](N(C)Cc1ccc(C#Cc2ccc(I)cc2)cc1)[C@](O)(Cn1cncn1)c1ccc(F)cc1F | 0.03 µg/mL (≈ 0.0501 µM) | 16 µg/mL (≈ 26.7 µM) | 0.05 µg/mL (≈ 0.0836 µM) | 16 µg/mL (≈ 26.7 µM) | 0.2 µg/mL (≈ 0.334 µM) | > 64 µg/mL | 0.05 µg/mL (≈ 0.0836 µM) | 16 µg/mL (≈ 26.7 µM) | 32 µg/mL (≈ 53.5 µM) | > 64 µg/mL | 32 µg/mL (≈ 53.5 µM) | 16 µg/mL (≈ 26.7 µM) | 0.05 µg/mL (≈ 0.0836 µM) | 0.05 µg/mL (≈ 0.0836 µM) | 0.013 µg/mL (≈ 0.0217 µM) | 0.013 µg/mL (≈ 0.0217 µM)
5 | C[C@@H](N(C)Cc1ccc(C#Cc2cc(F)c(Cl)cc2F)cc1)[C@](O)(Cn1cncn1)c1ccc(F)cc1F | 0.05 µg/mL (≈ 0.0921 µM) | 4 µg/mL (≈ 7.37 µM) | 0.05 µg/mL (≈ 0.0921 µM) | 4 µg/mL (≈ 7.37 µM) | 0.2 µg/mL (≈ 0.368 µM) | 32 µg/mL (≈ 58.9 µM) | 0.05 µg/mL (≈ 0.0921 µM) | 0.5 µg/mL (≈ 0.921 µM) | 8 µg/mL (≈ 14.7 µM) | 32 µg/mL (≈ 58.9 µM) | 4 µg/mL (≈ 7.37 µM) | 0.5 µg/mL (≈ 0.921 µM) | 0.013 µg/mL (≈ 0.0239 µM) | 0.013 µg/mL (≈ 0.0239 µM) | 0.006 µg/mL (≈ 0.0111 µM) | 0.006 µg/mL (≈ 0.0111 µM)
